Consider 2 compounds from US20100272811A1 (priority 2008, published 2010).

The nature of data set [1]: Pharmacokinetic profile of trospium powder formulations administered to rats via insufflation. In kind it is in vivo, Sprague-Dawley rats. The following applies: rat, intratracheal insufflation, approx. 200 μg trospium, plasma, mean ± standard error. On the procedure: Male Sprague-Dawley rats (weight 400±50 grams) were administered various powder formulations of trospium by insufflation. The rats were divided into four groups of four rats as follows: • Group A—Insufflated intratracheally with Leucine/Trospium/DPPC containing approximately 200 μg Trospium • Group B—Insufflated intratracheally with Leucine/Trospium/NaSaccharin containing approximately 200 μg Trospium • Group C—Insufflated intratracheally with Leucine/Citrate/NaSaccharin/Trospium containing approximately 200 μg Trospium • Group D—Insufflated intratracheally with Leucine/Trospium containing approximately 200 μg Trospium The formulations tested are described in Table 2.
Rats were anesthetized using inhaled Isofluorane. Drug powder was then intratracheally insufflated into each rat. All animals were allowed food and water ad libitum between blood collection time points. Blood samples were collected by a lateral tail vein after anesthesia. A syringe without an anticoagulant was used for blood collection and the whole blood was transferred to tubes containing K2 EDTA (MIRCOTAINER®; MFG# BD365974). The blood samples were processed (the tubes are inverted 15-20 times and centrifuged for 2 minutes at >14,000 g's to separate plasma). The plasma samples prepared in this manner were transferred to labeled plain tubes (MICROTAINER®; MFG# BD5962) and stored frozen at <−70° C. 250 ul of whole blood was obtained for each time point. Sample collection times were pre-insufflation, 2.5, 5.0, 7.5, 10, 15, 30, 60 and 120 minutes after insufflation.
Plasma samples were analyzed for trospium using an Ionspray LC/MS/MS (Liquid Chromatography coupled with Mass Spectrometery). Briefly, 100 ul of standard (trospium standard solutions in rat plasma), control or test samples were added to the wells of a 96-well plate. The trospium standard solutions were prepared by adding 100 ul of 1 ug/ml trospium chloride (in methanol) with rat plasma to yield a nominal concentration of 4000 pg/ml. Standard solutions in rat plasma were prepared as follows:
Controls were prepared by adding 1 ug/ml trospium chloride in methanol to rat plasma to yield concentrations of 2500 pg/ml, 800 pg/ml and 200 pg/ml of internal standard solution (2.5 ng/ml clidinium bromide in water) were added to all wells except those containing blank plasma samples. 20 ul of 50 mM ammonium acetate (pH 9.0) solution and 350 ul acetonitrile were added to all wells and the plate was shaken on an orbital shaker for 1-2 minutes. The plate was centrifuged at 2000×g for 5-7 minutes. The supernatant was removed added onto an Agilent 96-well plate and concentrated to dryness using a Speed Vacuum. The dry sample were then reconstituted with 100 ul of 50:50 methanol:water and analyzed by LC/MS/MS.
Quantitation was performed using a weighted (1/×) linear regression analysis generated from standard samples.

For data set [2] the following is noted: background statement; cited from earlier work.

Read-outs that look alike come from different tables or passages of the source.

In general, AUC refers to concentration integrated over time. One may read the Cmax as the peak of the concentration-time curve. In general, Tmax refers to the time at which the peak concentration occurs.

As to `O=C(O[C@H]1C[C@H]2CC[C@@H](C1)[N+]21CCCC1)C(O)(c1ccccc1)c1ccccc1` [Trospium chloride, endo-3-[(hydroxydiphenyl-acetyl)oxy]spiro[8-azoniabicyclo[3.2.1]octane-8,-1′-pyrrolidinium]chloride, reference compound], the AUC in data set [1] (male, Sprague-Dawley, inhaled or intranasal, 200 ug, read-out: AUC (converted)) was 24.9 ng·h/mL. Further, the Cmax in data set [1] (male, Sprague-Dawley, inhaled or intranasal, 200 ug, read-out: Cmax) was found to be 71.2 ± 6.26 ng/mL. Also, the Tmax in data set [1] (male, Sprague-Dawley, inhaled or intranasal, 200 ug, read-out: Tmax (converted)) is 6.31 min. Further, the aqueous solubility entry in data set [2] is “relatively high”.
As for `O=C(OC1C[C@H]2CC[C@@H](C1)[N+]21CCCC1)C(O)(c1ccccc1)c1ccccc1.O=C1NS(=O)(=O)c2ccccc21` (stereo partly drawn) [Trospium saccharin complex], in data set [1], the AUC came to 18.37 ± 1.28 ng·h/mL, the Cmax is 43.50 ± 5.32 ng/mL and the Tmax is reported as 9.38 ± 1.40 min. The solubility entry (30% ethanol with inline heating at 55° C.) is “greater than 4 mg/ml”. In addition, the soluble in water result (water at room temperature) is listed as “less than 0.4 mg/ml”.
